Patent US8642070B2, “Feed additive composition for ruminants, and feed containing the same, and method of fabricating such feed additive composition for ruminants” (Bio Science Co., Ltd., priority 2004, dated 2014)

Assay: Stability of the biologically active substance at the melting temperature of the spray melt blending liquid
Format: physicochemical
Settings: for Mean Content (%): liquid agitated 1 hour before injection
Experimental: Next, stability of the biologically active substance was studied in order to determine optimum temperature for the spray melt blending liquid used in the granulation through injection. […] However, when kept warmed below 75° C., the content remains high. Based on this fact, in the case of a rumen bypass product with a biologically active substance, employing a thermally vulnerable vitamins such as a calcium pantothenate, such vitamins can be contained in the preparation without suffering from any damage when granulation through injection is carried out, limiting the temperature of spray melt blending liquid to less than 75° C.

Row | Compound | Mean Content (%) (Melting Temperature 60 °C) | Mean Content (%) (Melting Temperature 65 °C) | Mean Content (%) (Melting Temperature 70 °C) | Mean Content (%) (Melting Temperature 75 °C) | Mean Content (%) (Melting Temperature 80 °C) | content estimated when kept warmed above 90° C. (kept warmed above 90° C., extrapolated from Table 4)
1 | Calcium Pantothenate | 98.6 | 96.9 | 97.1 | 94.5 | 71.5 | below 50%
2 | CSCC[C@H](N)C(=O)O [Methionine] | 100.5 | 100.3 | 103.6 | 104.2 | 109.6 | –
3 | O=C(O)c1cccnc1 [Nicotinic Acid] | 99.5 | 98.2 | 100.3 | 101.2 | 102.0 | –
